# US12227500B2, “Substituted pyrrolo[2,3-b]pyridines for suppressing toxic endoplasmic reticulum stress” (THE TRUSTEES OF COLUMBIA UNIVERSITY IN THE CITY OF NEW YORK, priority 2018, dated 2025)
# Where two headings read alike, the source gives them in different places.
# Tests used:
# hSOD1^G93A motor neurons = test: RT-PCR of stress-associated genes after CPA treatment; assay type: cell-based, mouse
# Procedure: . We observed a rapid increase in the expression of Bip and the key downstream effector Chop (Ddit3). Bip was increased 2-fold after 1 hour of CPA exposure, and continued to increase to approximately 5-fold by 8 hours. […] Other genes with >2-fold induction included: p58/PK 255 (6.5 fold at 8 hours), an ER-stress-induced protein kinase; Growth arrest and DNA-damage inducible protein 45 alpha (Gadd45a; […]; Erdj4, a Bip cofactor with involvement in ER associated protein degradation (ERAD) (5-fold at 4-8 hours); Atf4, a downstream mediator of the PERK-axis of the UPR (3-fold at 8 hours); […]; and Nrf2, a PERK substrate (2 fold at 8 hours). Altogether, these expression changes pointed to strong activation of multiple axes of the unfolded protein response (UPR) in motor neurons exposed to CPA (FIG. 19F).
# Samples were lysed in TRIzol and frozen at −80° C. until further processing. RNA was extracted using the Qiashredder and Qiagen RNeasy Mini kits (Qiagen) according to the manufacturer's protocol. 1-2 μg total RNA was used for each reverse transcription reaction, and reactions were performed using the TaqMan RT kit (Applied Biosystems, Grand Island, NY, USA). Primer pairs were designed for target transcripts using Primer Express 3.0 (Applied Biosystems). Quantitative PCR reactions were performed using the Power SYBR Green PCR Master Mix (Applied Biosystems). Reactions were run and analyzed on a ViiA 7 (Life Technologies) qPCR instrument using absolute quantification settings.
# [1] = test system: HB9::GFP-SOD1^+/+ human motor neurons; test: Rescue of CPA toxicity in human ESC-derived motor neurons, SOD1^+/+; assay type: cell-based; conditions: 33 μM CPA; for rescue of CPA-induced cell death: WT motor neurons
# From the text: (§1) One advantage of the stem cell-derived motor neuron survival assay is that it can be easily extended to human motor neurons. To adapt the assay to human cells, we generated a new isogenic pair of ESC lines derived from a human ESC line expressing GFP under the control of the Hb9 motor neuron promoter (HUES3 HB9::GFP, (Di Giorgio et al. 2008)). […] . The pair of cell lines was differentiated into motor neurons in parallel using previously published protocols (Amoroso et al. 2013; […] .
# (§2) Differentiation of human isogenic HUES3 ESC HB9::GFP reporter lines into motor neurons was performed as previously described (Maury et al. 2015). Cells were dissociated on day 16 of differentiation, FACS-sorted and plated on poly-ornithine- and laminin-coated surfaces as above. Serum-free human motor neuron plating media was supplemented with the antimitotic UFdU and the neurotrophic factors GDNF, BDNF, CNTF, and IGF1 (all at 10 ng/mL) as described (Johnson-Kerner et al. 2015).
# [2] = test system: ESC-derived spinal motor neurons and interneurons; test: Toxicity of ER stressors in mouse ESC-derived spinal neuron cultures; assay type: cell-based
# From the text: One of the selective stressors that we identified was cyclopiazonic acid (CPA), a mycotoxin that reversibly blocks the sarcoendoplasmic reticulum-associated calcium ATPse (SERCA). SERCA is responsible for sequestering calcium from the cytoplasm into the endoplasmic reticulum (ER) (Goeger et al. 1988). SERCA inhibition lowers calcium concentration in the ER, leading to dysfunction of protein folding, activation of the unfolded protein response, ER stress, and apoptosis (Doutheil et al. 1997). […]. For all subsequent experiments, unless stated otherwise, motor neurons were treated with 7.5 μM CPA.
# […]. […] […].
# For this analysis, we generated a new ESC line that expresses tdTomato in dI4 and dIL dorsal spinal inhibitory interneurons derived from Ptf1α-expressing progenitors (Hoang et al. 2017, unpublished data). We differentiated this line under conditions that promote the specification of dorsal interneuron identity. FACS-purified tdTomato-expressing interneurons were co-cultured with FACS-purified GFP-expressing spinal motor neurons (FIG. 16E and FIG. 16G).
# To strengthen the link between the activation of ER stress and motor neuron degeneration, we extended our study to include two additional compounds that activate ER stress: thapsigargin, a drug that acts similarly to CPA by inhibiting SERCA pumps, but is irreversible (Lytton et al. 1991), and tunicamycin, a drug that triggers ER stress in a calcium-independent manner by inhibiting protein N-glycosylation in the ER (Oslowski et al. 2011). […] Thus, the motor neuron-toxic effects of CPA are likely related to its activation of ER stress pathways and not to its effects on calcium levels or other off-target effects (FIG. 16G).
# [3] = test system: human stem cell-derived motor neurons derived from a healthy patient; test: CPA survival assay, wild-type human stem cell-derived motor neurons; conditions: for motor neuron survival restored, % of vehicle controls (maximum): CPA 33 μM, at 1.2 μM (PF-6260933), 2.4 μM (GNE-495), 0.6 μM (URMC-099)
# [4] = test system: HB9::GFP-SOD1^+/A4V human motor neurons; test: Rescue of CPA toxicity in human ESC-derived motor neurons, SOD1^+/A4V; assay type: cell-based
# From the text: as §1, §2
# N9 microglial cells = test: TNFα release by LPS-stimulated microglia (ELISA); assay type: cell-based, mouse; conditions: LPS 0.1-5 μM; 24 h
# Procedure: To model microglial activation in vitro, we stimulated mouse N9 microglial cells with increasing concentrations of E. coli-derived lipopolysaccharides (LPS) (0.1-5 μM) to measure release of the pro-inflammatory cytokine TNFα into cell culture media.
# Cultures were maintained in DMEM containing FBS (10%, Life Technologies) and Glutamax (1%, Life Technologies). […] N9 cells remaining in the culture dishes were treated with AlamarBlue (Thermo Fisher) to assess viability. 5 μL AlamarBlue was added to each well (containing 50 μL culture media) and incubated for 4 h at 37°.
# [5] = test system: human ES motor neurons carrying the ALS-causing SOD1^A4V mutation; test: cells; assay type: cell-based; conditions: 72 h
# Procedure: Next, survival assays were performed with all the analogs at once to generate a low-variability dataset. All compounds were evaluated at concentrations ranging from 0.1-3.0 μM (five-point dilution) in three technical replicates and two biological replicates.
# MLK3/MAP3K11 = molecular target: T1, MLK3/MAP3K11 (Homo sapiens, UniProt Q16584); test: Radiolabeled ATP kinase assay (Reaction Biology Corp.), MLK3; assay type: biochemical; conditions: 0.1 μM
# T1 construct: purchased Reaction Biology Corp
# T1 sequence (Q16584 whole entry): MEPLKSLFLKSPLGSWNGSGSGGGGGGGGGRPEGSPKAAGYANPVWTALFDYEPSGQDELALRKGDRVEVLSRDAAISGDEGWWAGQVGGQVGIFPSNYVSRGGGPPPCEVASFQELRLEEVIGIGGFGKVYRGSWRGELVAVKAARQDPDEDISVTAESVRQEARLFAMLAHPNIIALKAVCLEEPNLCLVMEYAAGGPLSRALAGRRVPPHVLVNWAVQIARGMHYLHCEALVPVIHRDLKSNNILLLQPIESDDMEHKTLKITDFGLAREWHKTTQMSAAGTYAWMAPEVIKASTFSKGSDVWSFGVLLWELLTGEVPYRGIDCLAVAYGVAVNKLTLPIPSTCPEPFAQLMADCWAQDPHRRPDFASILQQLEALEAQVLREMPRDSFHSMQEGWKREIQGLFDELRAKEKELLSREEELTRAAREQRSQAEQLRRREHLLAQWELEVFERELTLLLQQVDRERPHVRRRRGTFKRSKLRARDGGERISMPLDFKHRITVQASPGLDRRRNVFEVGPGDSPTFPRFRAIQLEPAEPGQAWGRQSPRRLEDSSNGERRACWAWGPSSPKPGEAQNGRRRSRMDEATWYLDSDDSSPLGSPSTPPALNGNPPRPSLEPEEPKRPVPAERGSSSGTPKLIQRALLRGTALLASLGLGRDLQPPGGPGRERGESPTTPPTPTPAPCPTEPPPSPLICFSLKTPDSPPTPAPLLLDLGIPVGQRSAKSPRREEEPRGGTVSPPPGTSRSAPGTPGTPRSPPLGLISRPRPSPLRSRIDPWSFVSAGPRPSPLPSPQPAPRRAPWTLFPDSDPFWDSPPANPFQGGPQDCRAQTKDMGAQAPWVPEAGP
# Procedure: (§3) Meanwhile, the same analogs were analyzed in a radiolabeled ATP assay (10 μM ATP; Reaction Biology Corp.) to compare the extent to which they could inhibit the activity of HGK, MLK1, or MLK3 in a cell-free environment (Table S3 and S4).
# HGK/MAP4K4 [6] = molecular target: T2, HGK/MAP4K4 (Homo sapiens, UniProt O95819); test: Radiolabeled ATP kinase assay (Reaction Biology Corp.), HGK; assay type: biochemical; design: purchased Reaction Biology Corp; conditions: 10 μM ATP, read-out: % Enzyme Activity (relative to DMSO controls), HGK/MAP4K4, Data 1
# Procedure: as §3
# Target sequence in this assay (O95819 whole entry): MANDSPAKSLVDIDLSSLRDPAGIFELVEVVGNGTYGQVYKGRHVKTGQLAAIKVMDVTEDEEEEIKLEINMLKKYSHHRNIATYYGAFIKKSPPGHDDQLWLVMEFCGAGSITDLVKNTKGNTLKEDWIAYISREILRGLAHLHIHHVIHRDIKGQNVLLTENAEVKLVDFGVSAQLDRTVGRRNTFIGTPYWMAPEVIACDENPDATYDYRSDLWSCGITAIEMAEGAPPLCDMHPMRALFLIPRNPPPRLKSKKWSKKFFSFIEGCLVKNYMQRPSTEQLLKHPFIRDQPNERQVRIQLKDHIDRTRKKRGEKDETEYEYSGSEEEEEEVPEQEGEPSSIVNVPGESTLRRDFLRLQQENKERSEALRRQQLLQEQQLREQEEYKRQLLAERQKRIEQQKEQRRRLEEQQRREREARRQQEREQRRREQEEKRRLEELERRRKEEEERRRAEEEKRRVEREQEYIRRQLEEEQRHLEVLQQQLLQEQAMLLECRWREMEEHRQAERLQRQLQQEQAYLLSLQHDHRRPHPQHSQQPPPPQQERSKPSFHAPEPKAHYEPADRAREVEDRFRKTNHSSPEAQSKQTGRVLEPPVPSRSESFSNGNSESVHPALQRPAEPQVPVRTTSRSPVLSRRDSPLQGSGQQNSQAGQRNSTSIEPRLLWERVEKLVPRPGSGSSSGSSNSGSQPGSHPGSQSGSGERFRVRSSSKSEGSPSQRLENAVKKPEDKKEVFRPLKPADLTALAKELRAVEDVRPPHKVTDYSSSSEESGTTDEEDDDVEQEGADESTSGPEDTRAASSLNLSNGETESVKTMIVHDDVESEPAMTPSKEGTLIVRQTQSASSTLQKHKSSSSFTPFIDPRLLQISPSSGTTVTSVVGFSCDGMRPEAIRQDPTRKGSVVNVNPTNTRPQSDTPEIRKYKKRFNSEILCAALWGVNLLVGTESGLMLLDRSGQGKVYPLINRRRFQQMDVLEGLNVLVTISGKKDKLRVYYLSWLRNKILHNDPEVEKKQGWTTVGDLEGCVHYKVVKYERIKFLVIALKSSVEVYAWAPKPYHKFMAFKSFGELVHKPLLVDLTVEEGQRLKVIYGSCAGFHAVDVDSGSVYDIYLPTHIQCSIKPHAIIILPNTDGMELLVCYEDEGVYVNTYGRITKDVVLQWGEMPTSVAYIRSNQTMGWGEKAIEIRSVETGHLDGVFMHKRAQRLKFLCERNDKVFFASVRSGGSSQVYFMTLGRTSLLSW
# human ES motor neurons = test: Rescue of CPA toxicity by kinase inhibitors in dilution series (FIG. 3); conditions: dilution series, FIG. 3
# HGK/MAP4K4 [7] = molecular target: T2, HGK/MAP4K4; conditions: Ammirati et al. 2015; Ndubaku et al. 2015; cited from earlier work
# Target sequence in this assay (O95819 whole entry, species assumed): as the sequence (O95819 whole entry) above
# NUAK1 = NUAK1 (Homo sapiens, UniProt O60285); conditions: 0.5 μM inhibitor; Anastassiadis et al. 2011; cited from earlier work
# NUAK1, sequence (O60285 whole entry, species assumed): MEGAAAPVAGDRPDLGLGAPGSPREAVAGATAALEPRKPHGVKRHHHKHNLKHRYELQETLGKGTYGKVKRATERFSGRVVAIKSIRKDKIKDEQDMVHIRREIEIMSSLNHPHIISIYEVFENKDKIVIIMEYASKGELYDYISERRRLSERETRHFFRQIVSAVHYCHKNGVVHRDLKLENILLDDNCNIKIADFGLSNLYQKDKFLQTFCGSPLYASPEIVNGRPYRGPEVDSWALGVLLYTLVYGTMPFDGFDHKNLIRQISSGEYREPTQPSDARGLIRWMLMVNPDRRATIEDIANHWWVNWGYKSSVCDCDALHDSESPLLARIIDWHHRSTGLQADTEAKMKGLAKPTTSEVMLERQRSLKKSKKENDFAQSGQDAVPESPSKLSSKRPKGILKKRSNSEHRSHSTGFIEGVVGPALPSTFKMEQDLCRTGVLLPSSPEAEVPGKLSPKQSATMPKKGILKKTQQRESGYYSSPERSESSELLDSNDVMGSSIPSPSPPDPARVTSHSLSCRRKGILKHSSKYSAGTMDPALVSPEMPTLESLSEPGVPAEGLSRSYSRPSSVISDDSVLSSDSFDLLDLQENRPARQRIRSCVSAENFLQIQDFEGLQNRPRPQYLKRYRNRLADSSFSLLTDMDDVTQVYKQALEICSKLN
compound,measurement,setting,value
"CC(=O)C1=C(O)[C@@H]2[C@H]3c4c[nH]c5cccc(c45)C[C@H]3C(C)(C)N2C1=O [CPA, cyclopiazonic acid]",Erdj4 induction,hSOD1^G93A motor neurons; 4-8 hours,5 fold
same,Chop induction,hSOD1^G93A motor neurons; 4 and 8 hours,16 fold
same,Chop induction,hSOD1^G93A motor neurons; 1 hour,4 fold
same,Bip expression increase,hSOD1^G93A motor neurons; 1 hour of CPA exposure,2 fold
same,Gadd45a induction,hSOD1^G93A motor neurons; 4 hours,5 fold
same,Atf4 induction,hSOD1^G93A motor neurons; 8 hours,3 fold
same,Bip expression increase,hSOD1^G93A motor neurons; 8 hours,approximately 5 fold
same,Calreticulin induction,hSOD1^G93A motor neurons; 8 hours,3 fold
same,Nrf2 induction,hSOD1^G93A motor neurons; 8 hours,2 fold
same,p58/PK induction,hSOD1^G93A motor neurons; 8 hours,6.5 fold
same,loss of motor neurons,[1],~71%
same,effective concentration range at which mutant motor neurons exhibit reduced survival compared to control,[2],6.25 to 12.5 µM
same,reduction of survival of GFP− Tuj-1+ non-motor neurons,[2],~23%
same,"reduction of survival of motor neurons (GFP+, Tuj1+)",[2],~71%
same,reduction of co-cultured spinal motor neuron survival,"[2]; FACS-purified co-culture, CPA",~70%
same,reduction of dorsal spinal interneuron survival,"[2]; FACS-purified co-culture, CPA",~17%
same,"motor neuron survival, % of controls treated with vehicle alone","[3]; CPA 33 μM for 72h, alone",~40%
same,loss of motor neurons,[4]; 33 μM CPA,~86%
"CN1CC2CCC(C1)N2Cc1ccc(-c2cnc3[nH]cc(-c4cccc5[nH]ncc45)c3c2)cc1 [Compound 12e, 4-(5-(4-((3-Methyl-3,8-diazabicyclo[3.2.1]octan-8-yl)methyl)phenyl)-1H-pyrrolo[2,3-b]pyridin-3-yl)-1H-indazole]",TNFα secretion in LPS-stimulated microglia,N9 microglial cells,did not significantly decrease TNFα levels
same,EC50,[5]; CPA 33 μM,Amibiguous
same,viability at 1 µM,"[5]; Homo sapiens, Neuron, CPA (33 μM) + compound (1 μM), read-out: Motor Neuron Survival, % untreated",106%
same,Emax,"[5]; Homo sapiens, Neuron, CPA 33 μM, read-out: Emax (MN survival % untreated)",144%
same,remaining activity at 0.1 µM,MLK3/MAP3K11,71.8%
same,remaining activity at 0.025 µM,HGK/MAP4K4 [6]; [Cmpd] 0.025 μM,2.73%
same,remaining activity at 0.1 µM,HGK/MAP4K4 [6]; [Cmpd] 0.1 μM,0.99%
COC(=O)[C@@]1(O)C[C@H]2O[C@]1(C)n1c3ccccc3c3c4c(c5c6ccccc6n2c5c31)C(=O)NC4 [Compound K-252a],rescue of CPA-induced cell death,[1],56%
same,rescue of CPA-induced cell death,[4],100%
Nc1ncc(C(=O)NC2CN(C(=O)C3CC3)C2)c2ccc(-c3cccc(F)c3)nc12 [GNE-495],rescue of CPA toxicity,human ES motor neurons,similarly neuroprotective
same,IC50,HGK/MAP4K4 [7],3.7 nM
same,"motor neuron survival restored, % of vehicle controls (maximum)",[3],73%
Cn1c2ccccc2c2c3c(c4c5ccccc5n(CCC#N)c4c21)CNC3=O [Go 6976],rescue of CPA-induced cell death,[1],45%
same,rescue of CPA-induced cell death,"[4]; SOD1^A4V motor neurons, 33 μM CPA",34%
Nc1ccc(-c2cnc(N)c(-c3ccc(Cl)cc3)c2)cn1 [PF-6260933],rescue of CPA toxicity,human ES motor neurons,protected against CPA toxicity in a dose-dependent manner
same,IC50,HGK/MAP4K4 [7],3.7 nM
same,"motor neuron survival restored, % of vehicle controls (maximum)",[3],63%
CN(C)S(=O)(=O)c1ccc2c(c1)/C(=C/c1cc3c([nH]1)CCCC3)C(=O)N2 [SU6656],rescue of CPA toxicity,human ES motor neurons,failed to rescue CPA toxicity
same,NUAK1 activity remaining,NUAK1,10.9%
